Tests used:
Hsp70 = Hsp70 secretion by cultured tumor cells (ELISA); format: cell-based, human; conditions: MDA-MB-435, 0.04 μM or 0.2 μM, 72 h
Protocol: MDA-MB-435 tumor cells were seeded at 15,000 cells/150 μl/well of 48-well plate and cultured in DMEM supplemented with 10% fetal bovine serum. The compounds were dissolved in dimethyl sulfoxide (DMSO) then a solution was prepared containing 0.04 μM or a 0.2 μM in 25% DMSO and 75% culture medium. […] The medium was then separated from the cells and Hsp70 was measured by ELISA kit from Stressgen. Cell viability was checked by CCK-8 cell count assay (Dojindo) at 88 hr.

MAPKAPK-2 = MAPKAPK-2 phosphorylation, Western blot, CEM and CV-1 cells; format: cell-based; conditions: CEM and CV-1 tumor cells, 0.1 or 0.5 μM
Protocol: After treatment the cells were lysized and used for Western blot analysis.
Samples were run on a SDS-PAGE gel and proteins were transferred onto a nitrocellulose membrane by a semi-dry transfer. Nitrocellulose was blocked with 5% skim milk in TBS with 0.5% Tween at room temperature for 1 hour and then probed with anti-p-MAPKAPK-2 (Thr334) (#3041, Cell Signaling) antibody. Tubulin was used as a normalization control and was probed with Anti-Tubulin (T9026, Sigma) antibody.

With `CN(NC(=O)CC(=O)NN(C)C(=S)c1ccccc1)C(=S)c1ccccc1` [Compound 1] the “secretion of Hsp70” value (Hsp70) was “increased the secretion of Hsp70 by the cells in a dose dependent manner” and the “phosphorylation of MAPKAPK-2” value (MAPKAPK-2) was “induces the phosphorylation of MAPKAPK-2”.

From US20090093538A1, “Method for treating cancer” (priority 2007, published 2009)
